Source: paper PMC11997985, “Synthesis and In Vitro Profiling of Psilocin Derivatives: Improved Stability and Synthetic Properties” (Journal of Medicinal Chemistry, 2025)
Where “and” joins values, the source holds several entries; their conditions need not be identical. Equal values may be shown once. Marks after values point to notes of the source that are not given here.

Legend:
[1] = Solubility, screen method, phosphate buffer pH 7.4, 1% DMSO; type: physicochemical; settings: phosphate buffer with 1% DMSO; 100 mM phosphate buffer pH 7.4, 1% DMSO; assay range 0.1 to 100 μM
[2] = Metabolic stability in human microsomes; type: in vitro ADME; settings: for Metabolic stability in human microsomes: 37 °C, 0.5 mg/mL protein, 1 μM compound, 1 mM NADPH; for Comment on microsome assay: Table S3
[3] = Chemical stability in 1.0 M NaHCO3 and 1.0 M HCl
[4] = Peak area in microsome suspension compared with compounds in solution; type: in vitro ADME, human; settings: peak area 15 seconds after addition of NADPH versus same amount (125 nM) in H2O/EtOH
Method: (§1) were taken at three timepoints, and the degradation was compared to determine if it was dependent on NADPH. Compound 4k […]
(§2) without the addition of NADPH. […]
(§3) microsomes that need to be activated by a co -factor.
(§4) Table S5 Percent of peak area found in microsome suspension 15 seconds after the addition of NADPH in comparison with the same amount dissolved in H2O/EtOH
(§5) No. Area at 0.25 min. in Area in solution % found in microsomes/NADPH (125 nM) microsome
(§6) Comparison with compounds in solution. A comparison was made between the peak area of the compounds in solution with that obtained in the microsome suspension directly after the addition of NADPH (about 0.25 minutes) (Table S5). Before the addition of NADPH, the compounds are equilibrated in the microsome suspension for approximately five minutes. All compounds were prepared in solution by diluting a portion of the DMSO solutions with H2O/EtOH (75:25) to 125 nM (the final concentration of compounds for analysis in the microsome assay).
(§7) For the compounds where no results from the microsome assay could be reported due to low peak area (4d, 4e, 4f & 5), less than one percent of the expected peak area as compared with the area in solution was detected. […]
(§8) degrade rapidly before the addition of the co-factor after five minutes in incubation. For compounds 4g, 4h, 4i & 4j, which were […]
(§9) higher relative peak areas were found. […]
(§10) without NADPH was only found at 15% of the area seen in solution in the microsome suspension.

[5] = Stability in simulated stomach acid (0.10 M HCl); settings: 0.10 M HCl (simulated stomach acid)
[6] = Co-factor experiment: microsome suspension with and without NADPH; type: in vitro ADME, human; settings: for Co-factor experiment: degradation with and without addition of NADPH compared
Method: Therefore, additional experiments comparing stability with and without the addition of NADPH cofactor and a very short incubation period were performed (Tables S4 and S5). […] Due to the rapid observed degradation in microsomes, we decided to investigate the stability of five compounds in human plasma, aiming for a broad range of stabilities (Table 2, Table S6). It should be noted that esterase-labile compounds are notoriously difficult to study in microsomal stability studies.[36]
Table S3 Evaluation of metabolic stability in human microsomes
No. Metabolic stability Comment
4k <10/<10 Low retention in chromatography
8 <10/<10 Low retention in chromatography.
Table S4 Results from the modified microsome assay where degradation with and without the addition of NADPH was compared […]
4d Very low peak area for the first time point,
4e Very low peak area for the first time point,
4f Very low peak area for the first time point,
5 Very low peak area for the first time point,
8 No degradation without co -factor […]
metabolism by the microsomes (consisting mainly of cytochrome P450 enzymes) or if it was due to other factors, the compounds (with the exception of 4k) were incubated in the microsome suspension both with and without the addition of NADPH. Samples […]
as §1, §2, §3, §4, §5, §6, §7, §8, §9, §10

[7] = cited from earlier work

SMILES | solubility [1] [µM] | Metabolic stability in human microsomes [2] | Comment on microsome assay [2] | half-life at 24 h, 5 mM ([3]; 1.0 M HCl) [h] | half-life at 24 h, 5 mM ([3]; 1.0 M NaHCO3) [h] | % found in microsome suspension [4] [%] | half-life at 5 mM [5] [h] | Co-factor experiment [6] | half-life at 5 mM ([3]; 1.0 M HCl) [h] | microsomal CLint ([6]; human, human microsome suspension, both with and without the addition of NADPH, read-out: intrinsic clearance) [µL/min/mg] | half-life at 5 mM ([3]; 1.0 M NaHCO3) [h] | degradation of psilocin under UV radiation ([7]; 254 nm, in EtOH, after 1.75 h) [%] | degradation of psilocin in NaOH solution ([7]; NaOH solution (1 M), after 2 h, ref 46 (Barrow et al.)) [%] | degradation of psilocin in oxidative conditions ([7]; oxidative conditions)
CCCC(=O)Oc1cccc2[nH]cc(CCN(C)C)c12.O=C(O)/C=C/C(=O)O [Compound 4b] | 87 | >200^a μL/min/mg protein and >200 μL/min/mg protein | Rapid degradation | 15 | 65 | 0.3 | > 167 | No degradation without co-factor | – | – | – | – | – | –
CCCCC(=O)Oc1cccc2[nH]cc(CCN(C)C)c12.O=C(O)/C=C/C(=O)O [Compound 4c] | 87 | >200^a μL/min/mg protein and >200 μL/min/mg protein | Rapid degradation | 13.3 | 50 | 0.2 | > 167 | No degradation without co-factor | – | – | – | – | – | –
CN(C)CCc1c[nH]c2cccc(OC(=O)c3ccccc3)c12.O=C(O)/C=C/C(=O)O [Compound 4h] | > 90 | >200^a μL/min/mg protein and >200 μL/min/mg protein | Rapid degradation | – | 150 | 44 | > 167 | Degradation without co-factor | > 167 | > 200 | – | – | – | –
CN(C)CCc1c[nH]c2cccc(OS(=O)(=O)O)c12 [Compound 6] | > 90 | >200 μL/min/mg protein | Rapid degradation | – | – | 15 | > 167 | No degradation without co-factor | > 167 | – | > 167 | – | – | –
CN(C)CCc1c[nH]c2cccc(O)c12 [psilocin freebase, 4-hydroxy-N,N-dimethyltryptamine] | – | – | – | – | – | – | – | – | – | – | – | 9 | 60 | complete degradation after only two hours
